From patent US11485736B2 (KSQ Therapeutics, Inc., priority 2018, dated 2022)
Read-outs that look alike come from different tables or passages of the source.

Legend:
[1] = ADME solubility determination at pH 2.0 and pH 7.4; format: physicochemical; conditions: aqueous buffer, thermodynamic from solid, LC-MS/MS
Summary of the method: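 Dried residues of 10 mM DMSO stocks were shaken in PBS pH 7.4 or pH 2.0 for 24 hours at 25° C. and 1,100 rpm. After centrifugation, supernatants were quantified by LC-MS/MS against a standard of known concentration, applying a dilution factor.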

[2] = Liver microsomal stability, rat liver microsomes; format: in vitro ADME; conditions: 1 μM compound, NADPH, read-out: t1/2 (min) in RLM
Summary of the method: (§1)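 Compound (1 μM final) was incubated with prewarmed human or rat liver microsomes (1 mg/mL in 100 mM phosphate master mix) plus NADPH; aliquots at 0.5–30 minutes were quenched in cold acetonitrile and quantified by LC-MS/MS. Half-life came from the ln(% remaining) versus time slope, converted to CLint (μL/min/mg prot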

[3] = Liver microsomal stability, human liver microsomes; format: in vitro ADME; conditions: 1 μM compound, NADPH, read-out: t1/2 (min) in HLM
Summary of the method: as §1

[4] = PBS pH 2.0, shaken at 25° C. for 24 hours, read-out: Solubility at pH 2.0
[5] = PBS pH 7.4, shaken at 25° C. for 24 hours, read-out: Solubility at pH 7.4

solubility at 24 h [1, 4] [µM] | solubility at 24 h [1, 5] [µM] | half-life at 1 μM [2] [min] | half-life at 1 μM [3] [min] | solubility at 24 h ([1]; phosphate buffered saline, PBS pH 2.0, shaken at 25° C. for 24 hours, read-out: Solubility at pH 2.0) [µM] | solubility at 24 h ([1]; phosphate buffered saline, PBS pH 7.4, shaken at 25° C. for 24 hours, read-out: Solubility at pH 7.4) [µM] | SMILES
< 10 | < 10 | > 25 | > 25 | – | – | CCn1cc(C(F)(F)F)nc1-c1ccc([C@H](C)n2ncc3cnc(-c4c(OC)ncnc4C4CC4)nc32)cc1F [Example 96]
> 10 | < 10 | > 25 | > 25 | – | – | COc1ncnc(C2(C)CC2)c1-c1ncc2cnn(Cc3ccc(-n4nc(C(F)(F)F)cc4C)cc3)c2n1 [Example 105]
> 10 | > 10 | > 25 | > 25 | – | – | COc1ncnc(C2CC2)c1-c1ncc2cnn(Cc3ccc(-c4nc(C(F)(F)F)nn4C)c(F)c3)c2n1 [Example 57]
> 10 | < 10 | > 25 | > 25 | – | – | CCn1cc(C(F)(F)F)nc1-c1ccc(Cn2nc(OC)c3cnc(-c4c(OC)ncnc4C4CC4)nc32)cc1 [Example 176]
< 10 | > 10 | > 25 | > 25 | – | – | COc1ncnc(C(C)C)c1-c1ncc2cnn(Cc3ccc(-c4nc(C(F)(F)F)cn4C(C)C)cc3)c2n1 [Example 119]
< 10 | < 10 | > 25 | > 25 | – | – | COc1ncnc(C2CC2)c1-c1ncc2c(OC)nn(C(C)c3ccc(-c4nc(C(F)(F)F)cn4CCF)cc3)c2n1 (stereo not shown) [Example 177]
< 10 | < 10 | < 25 | < 25 | – | – | CC(C)c1ccccc1-c1ncc2cnn(C(C)c3ccc(-c4nc(C(F)(F)F)cn4C)cc3)c2n1 (stereo not shown) [Example 24]
> 10 | < 10 | < 25 | < 25 | – | – | COc1ncnc(C2CC2)c1-c1ncc2cnn(Cc3ccc(-c4nc(C(F)(F)F)c5n4CCNC5)cc3)c2n1 [Example 136, 6-(4-Cyclopropyl-6-methoxypyrimidin-5-yl)-1-(4-(1-(trifluoromethyl)-5,6,7,8-tetrahydroimidazo[1,5-a]pyrazin-3-yl)benzyl)-1H-pyrazolo[3,4-d]pyrimidine]
> 10 | > 10 | > 25 | > 25 | – | – | [2H]C([2H])([2H])C([2H])([2H])n1cc(C(F)(F)F)nc1-c1ccc(Cn2ncc3cnc(-c4c(OC)ncnc4C4CC4)nc32)cc1 [Example 139]
– | – | < 25 | < 25 | < 10 | < 10 | Cc1ncnc(C(C)C)c1-c1ncc2cnn(Cc3ccc(-n4nc(C(F)(F)F)cc4C)cc3)c2n1 [Example 45]
< 10 | < 10 | < 25 | < 25 | – | – | CCOc1ncnc(C2CC2)c1-c1ncc2c(OCC)nn(Cc3ccc(-c4nc(C(F)(F)F)cn4CC)cc3)c2n1 [Example 183]
< 10 | < 10 | > 25 | > 25 | – | – | COc1ncnc(C2CC2)c1-c1ncc2cnn(Cc3ccc(-c4nc(C(F)(F)F)nn4C(C)C)cc3)c2n1 [Example 58]
< 10 | < 10 | > 25 | > 25 | – | – | CCn1cc(C(F)(F)F)nc1-c1ccc(Cn2nc(OC)c3cnc(-c4c(OC)ncnc4C4CC4)nc32)cc1F [Example 175, 6-(4-cyclopropyl-6-methoxypyrimidin-5-yl)-1-(4-(1-ethyl-4-(trifluoromethyl)-1H-imidazol-2-yl)-3-fluorobenzyl)-3-methoxy-1H-pyrazolo[3,4-d]pyrimidine]
< 10 | < 10 | < 25 | < 25 | – | – | CCn1cc(C(F)(F)F)nc1-c1ccc(Cn2nc(SCc3ccc(OC)cc3)c3cnc(-c4c(OC)ncnc4C4CC4)nc32)cc1 [Example 192, 6-(4-cyclopropyl-6-methoxypyrimidin-5-yl)-1-(4-(1-ethyl-4-(trifluoromethyl)-1H-imidazol-2-yl)benzyl)-3-((4-methoxybenzyl)thio)-1H-pyrazolo[3,4-d]pyrimidine]
> 10 | < 10 | > 25 | > 25 | – | – | COc1ncnc(C2CC2)c1-c1ncc2cnn([C@@H](C)c3ccc(-c4nc(C(F)(F)F)cn4CCF)cc3)c2n1 [Example 169]
> 10 | < 10 | > 25 | > 25 | – | – | COc1ncnc(C2CC2)c1-c1ncc2c(OC)nn([C@@H](C)c3ccc(-c4nc(C(F)(F)F)cn4C(C)C)cc3)c2n1 [Example 181]
> 10 | < 10 | < 25 | < 25 | – | – | COc1cccc(OC)c1-c1ncc2cnn(Cc3ccc(-c4nc(C(F)(F)F)cn4C)cc3)c2n1 [Example 4, 6-(2,6-dimethoxyphenyl)-1-(4-(1-methyl-4-(trifluoromethyl)-1H-imidazol-2-yl)benzyl)-1H-pyrazolo[3,4-d]pyrimidine]
> 10 | > 10 | > 25 | < 25 | – | – | COc1ncnc(C(C)(C)F)c1-c1ncc2cnn(Cc3ccc(-c4nc(C(F)(F)F)cn4C)cc3)c2n1 [Example 110]
> 10 | < 10 | < 25 | < 25 | – | – | COc1ccccc1-c1ncc2cnn(Cc3ccc(-c4nc(C(F)(F)F)cn4C)cc3)c2n1 [Example 2, 6-(2-methoxyphenyl)-1-(4-(1-methyl-4-(trifluoromethyl)-1H-imidazol-2-yl)benzyl)-1H-pyrazolo[3,4-d]pyrimidine]
< 10 | < 10 | > 25 | > 25 | – | – | CCOc1nn(Cc2ccc(-c3nc(C(F)(F)F)cn3CC)cc2)c2nc(-c3c(OC)ncnc3C3CC3)ncc12 [Example 182]
< 10 | < 10 | > 25 | > 25 | – | – | COc1ncnc(C2CC2)c1-c1ncc2nc(C3CCC3)n(Cc3ccc(-n4nc(C(F)(F)F)cc4C)cc3)c2n1 [Example 214]
> 10 | > 10 | < 25 | < 25 | – | – | COc1ncnc(C2(C)CC2)c1-c1ncc2cnn(Cc3ccc(-c4nc(C(F)(F)F)cn4C)cc3)c2n1 [Example 104]
> 10 | > 10 | > 25 | < 25 | – | – | COc1ncnc(C2CC2)c1-c1ncc2nc(C)n(Cc3ccc(-n4nc(C(F)(F)F)cc4C)cc3)c2n1 [Example 211]
< 10 | < 10 | < 25 | > 25 | – | – | CCn1cc(C(F)(F)F)nc1-c1ccc([C@H](C)n2ncc3cnc(-c4c(OC)ncnc4C(C)C)nc32)cc1F [Example 118]
< 10 | < 10 | < 25 | < 25 | – | – | COc1cnn(C2CC2)c1-c1ncc2cnn(Cc3ccc(-c4nc(C(F)(F)F)cn4C)cc3)c2n1 [Example 81]
